Experimental data published in article PMC6099706, “Anti-Mycobacterium tuberculosis Activity of Esters of Quinoxaline 1,4-Di-N-Oxide” (Molecules : A Journal of Synthetic Chemistry and Natural …, 2018).
Converted amounts (≈) assume the structure as drawn.

Columns and labels:
M. tb H37Rv = test: MIC on M. tb H37Rv (Table 4 panel); format: cell-based; conditions: Mycobacterium tuberculosis
M. abscessus = test: MIC on nontuberculous Mycobacterium clinical isolate; format: cell-based; conditions: Mycobacteroides abscessus
M. chelonae = test: as above; format: cell-based; conditions: Mycobacteroides chelonae
[1] = system: Mycobacterium tuberculosis strain H37Rv; test: microplate Alamar blue assay (MABA); format: cell-based; conditions: Mycobacterium tuberculosis, H37RV, M. tuberculosis H37Rv; lowest concentration effecting 90% inhibition
[2] = system: nonreplicating persistent (NRP) M. tuberculosis strain; test: microbe, parasite or virus in culture; format: cell-based, Mycobacterium tuberculosis; conditions: Mycobacterium tuberculosis; nonreplicating persistent strain; read-out: LORA MIC
M. fortuitum = test: MIC on nontuberculous Mycobacterium clinical isolate; format: cell-based; conditions: Mycolicibacterium fortuitum
M. avium = test: as above; format: cell-based
M. smegmatis = test: as above; format: cell-based; conditions: Mycolicibacterium smegmatis
[3] = cytotoxicity on macrophages (Alamar blue) and selectivity index; format: cell-based, mouse; conditions: mouse, J774A.1 macrophage cells; for CC50 at 96 h: cytotoxicity on macrophage cell J774A.1 at 96 h; for CC50 at 6 h: cytotoxicity on macrophage cell J774A.1 at 6 h
Method: (§1) The determination of the half maximal cytotoxicity concentration (CC50) of the compounds T-006, T-011, T-018, T-022, T-069, T-085, T-088, and T-089 was carried out on the mouse macrophage cell line J774A.1 (ATCC TIB-67). Briefly, cell monolayers were prepared in 96-well plates with 10,000 cells per well in Ham’s F-12 medium supplemented with 10% Fetal bovine serum (FBS, By products, Guadalajara, Mexico) and antibiotics (penicillin and gentamicin). Five concentrations from 100 to 0.5 μg/mL of each of the compounds were tested. The cells were incubated for a period of 6 h (^−) or 96 h (^+). Before completing this period, 20 μL of Alamar blue solution was added to each well, quantifying the relative fluorescence units in a fluorometer (Fluoroskan Ascent FL, Labsystems). The percentage of cytotoxicity at each concentration was determined by comparing the values against the control of cells without treatment. The CC50 was determined with the Probit regression analysis (MedCalc Statistical Software version 18.5, Ostend, Belgium). Selectivity index was calculated as the ratio of the CC50 on the macrophage cell line J774A.1 and the MIC value against M. tuberculosis strain H37Rv.

[4] = system: mouse macrophage cell line J774A.1; test: as above; format: cell-based; conditions: ratio of CC50 on J774A.1 and MIC against M. tuberculosis H37Rv
Method: as §1

[5] = target: M. tuberculosis gyrase (GyrA and Gyr B subunits) (Mycobacterium tuberculosis, UniProt P9WG45+P9WG47); test: M. tuberculosis gyrase supercoiling assay; format: biochemical; conditions: at 50 μM
M. tuberculosis gyrase (GyrA and Gyr B subunits), sequence (P9WG45 whole entry): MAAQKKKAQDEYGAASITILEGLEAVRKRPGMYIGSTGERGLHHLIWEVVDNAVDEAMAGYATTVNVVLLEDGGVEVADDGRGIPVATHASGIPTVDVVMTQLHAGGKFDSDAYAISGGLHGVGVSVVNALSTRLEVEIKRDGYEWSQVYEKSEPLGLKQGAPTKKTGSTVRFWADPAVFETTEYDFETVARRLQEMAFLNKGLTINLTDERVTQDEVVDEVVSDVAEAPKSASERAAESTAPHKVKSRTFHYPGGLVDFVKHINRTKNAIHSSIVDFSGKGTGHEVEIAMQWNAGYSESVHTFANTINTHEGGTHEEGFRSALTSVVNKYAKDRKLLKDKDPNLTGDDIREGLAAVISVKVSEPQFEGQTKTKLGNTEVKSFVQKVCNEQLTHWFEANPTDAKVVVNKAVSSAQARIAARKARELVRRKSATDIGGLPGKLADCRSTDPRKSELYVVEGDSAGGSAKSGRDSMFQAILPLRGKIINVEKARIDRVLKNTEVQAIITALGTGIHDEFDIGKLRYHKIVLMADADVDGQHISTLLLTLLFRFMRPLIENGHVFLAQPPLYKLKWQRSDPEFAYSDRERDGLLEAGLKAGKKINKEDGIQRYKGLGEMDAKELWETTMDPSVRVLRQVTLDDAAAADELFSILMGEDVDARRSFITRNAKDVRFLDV
M. tuberculosis gyrase (GyrA and Gyr B subunits), sequence (P9WG47 whole entry): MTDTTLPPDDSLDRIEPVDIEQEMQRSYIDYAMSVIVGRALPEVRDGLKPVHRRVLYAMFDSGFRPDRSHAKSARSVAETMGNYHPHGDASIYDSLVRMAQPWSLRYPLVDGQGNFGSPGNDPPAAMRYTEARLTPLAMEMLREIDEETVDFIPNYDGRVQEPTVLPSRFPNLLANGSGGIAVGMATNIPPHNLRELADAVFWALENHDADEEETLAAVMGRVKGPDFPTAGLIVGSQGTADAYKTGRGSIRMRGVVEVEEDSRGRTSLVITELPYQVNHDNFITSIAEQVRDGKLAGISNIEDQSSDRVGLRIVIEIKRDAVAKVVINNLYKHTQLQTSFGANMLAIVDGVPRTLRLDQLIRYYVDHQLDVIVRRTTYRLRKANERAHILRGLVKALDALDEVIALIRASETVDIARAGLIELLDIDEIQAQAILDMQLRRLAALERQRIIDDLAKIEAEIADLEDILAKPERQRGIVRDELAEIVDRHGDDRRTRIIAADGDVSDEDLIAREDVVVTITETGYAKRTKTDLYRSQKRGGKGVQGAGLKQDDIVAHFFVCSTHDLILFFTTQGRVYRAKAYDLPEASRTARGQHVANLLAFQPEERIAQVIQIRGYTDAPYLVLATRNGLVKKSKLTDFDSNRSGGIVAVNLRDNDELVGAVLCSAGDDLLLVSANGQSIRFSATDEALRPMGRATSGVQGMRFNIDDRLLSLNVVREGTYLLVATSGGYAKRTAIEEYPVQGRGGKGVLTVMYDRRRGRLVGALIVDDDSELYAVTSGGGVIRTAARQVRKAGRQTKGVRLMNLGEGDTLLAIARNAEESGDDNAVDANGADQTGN
Method: The activity of the enzyme was determined prior to the testing of the quinoxaline 1,4-di-N-oxide derivatives and 1 U was defined as the amount of enzyme required to just fully supercoil the substrate under test conditions. Compounds were tested at 50 μM. Final DMSO concentration in the assays was 1% (v/v).
1 U of M. tuberculosis gyrase (GyrA and Gyr B subunits) (final concentration in assay 50 nM) was incubated with 0.5 μg of relaxed pBR322 DNA in a 30 μL reaction at 37 °C for 30 min under the following conditions: 50 mM HEPES. KOH (pH 7.9), 6 mM magnesium acetate, 4 mM DTT, 1 mM ATP, 100 mM potassium glutamate, 2 mM spermidine and 0.05 mg/mL albumin.
Each reaction was stopped by the addition of 30 μL chloroform/iso-amyl alcohol (26:1) and 20 μL Stop Dye (40% sucrose, 100 mM Tris.HCl (pH 7.5), 10 mM EDTA, 0.5 μg/mL bromophenol blue), before being loaded on a 1.0% TAE (Tris.acetate […], EDTA […]) gel run at 80 V for 2 h.
Bands were visualized by ethidium staining for 10 min, destained for 10 min in water, analyzed by gel documentation equipment (Syngene, Cambridge, UK), and quantified using Syngene software (Genetools version 4.00 (1997–1998), Syngene, A division of Synoptics Corp, Cambridge, UK).
Raw gel data (fluorescent band volumes) collected from Syngene’s GeneTools gel analysis software were converted to a % of the 100% control (the supercoiled enzyme plus DMSO control DNA band). These were analyzed using SigmaPlot Version 13.0 (Systat Software Inc., London, UK; 2016).

[6] = stability in human plasma by UPLC-MS; format: in vitro ADME; conditions: 37 °C, 24 h
Method: Compounds T-018 and T-069 were selected to analyze their stability in human plasma. A total of 1 mg of each of the two compounds was dissolved in 1 mL of dichlorometane. Then, 0.1 mL was added to 0.9 mL of 0.1% formic acid in acetonitrile for analysis by UPLC with an ACQUITY QDa mass detector from Waters (Milford, MA, USA) under the following conditions: column: ACQUITY UPLC® BEH C18 1.7 µm, 2.1 × 100 mm; mobile phase: 0.1% formic acid/acetonitrile; run time: 5 min; flow rate: 0.3 mL/min; injection volume: 0.5 µL; temperature: 40 °C. After that, 3 mL of human plasma was obtained from a volunteer under medical supervision and following the standard procedures. Then, 1 mg of T-018 and T-069 were dissolved with DMSO 2% and added to 1 mL of human plasma. Samples were incubated at 37 °C for 12 and 24 h. T-018 and T-069 were obtained by liquid extraction with dichloromethane (10 mL) three times and the solvent was eliminated for vacuum pressure. After that, 1 mL of dichlorometane was added and 0.1 mL was added to 0.9 mL of 0.1% formic acid in acetonitrile and analyzed by UPLC-MS. Percentage of degradation was calculated considering the area under the curve of each peak/the area under the curve of all peaks × 100% at 24 h only.

SMILES	MIC (M. tb H37Rv)	MIC (M. abscessus)	MIC (M. chelonae)	MIC [1]	MIC [2]	MIC (M. fortuitum)	MIC (M. avium)	MIC (M. smegmatis)	CC50 at 96 h [3]	SI (selectivity index) [4]	inhibitory effect on M. tuberculosis gyrase supercoiling [5]	CC50 at 6 h [3]	stability in human plasma [6]
CCOC(=O)c1ccc2c(c1)[n+]([O-])c(C(C)=O)c(C(F)(F)F)[n+]2[O-] [Compound T-006]	2 mg/L (≈ 5.81 µM)	> 10 mg/L	> 10 mg/L	0.29 mg/L (≈ 0.842 µM)	0.42 mg/L (≈ 1.22 µM)	> 10 mg/L	2.5 mg/L (≈ 7.26 µM)	> 10 mg/L	> 100 mg/L	>50	–	–	–
CCOC(=O)c1ccc2c(c1)[n+]([O-])c(C(=O)c1cccs1)c(C(F)(F)F)[n+]2[O-] [Compound T-011]	0.5 mg/L (≈ 1.21 µM)	> 10 mg/L	> 10 mg/L	≤ 0.15 mg/L	0.21 mg/L (≈ 0.509 µM)	2.5 mg/L (≈ 6.06 µM)	< 0.31 mg/L	0.62 mg/L (≈ 1.5 µM)	–	3.34	none of the compounds showed an inhibitory effect	1.67 mg/L (≈ 4.05 µM)	–
COC(=O)c1ccc2c(c1)[n+]([O-])c(C(=O)c1ccccc1)c(C(F)(F)F)[n+]2[O-] [Compound T-018]	1 mg/L (≈ 2.55 µM)	5 mg/L (≈ 12.7 µM)	> 10 mg/L	≤ 0.15 mg/L	0.34 mg/L (≈ 0.867 µM)	> 10 mg/L	2.5 mg/L (≈ 6.37 µM)	2.5 mg/L (≈ 6.37 µM)	–	35.37	none of the compounds showed an inhibitory effect	35.4 mg/L (≈ 90.2 µM)	–
COC(=O)c1ccc2c(c1)[n+]([O-])c(C(=O)OC)c(C)[n+]2[O-] [Compound T-022]	0.5 mg/L (≈ 1.71 µM)	> 10 mg/L	2.5 mg/L (≈ 8.55 µM)	0.29 mg/L (≈ 0.992 µM)	0.56 mg/L (≈ 1.92 µM)	2.5 mg/L (≈ 8.55 µM)	2.5 mg/L (≈ 8.55 µM)	0.62 mg/L (≈ 2.12 µM)	86.2 mg/L (≈ 295 µM)	–	–	–	–
CC(C)OC(=O)c1ccc2c(c1)[n+]([O-])c(C(=O)c1cccs1)c(C(F)(F)F)[n+]2[O-] [Compound T-069]	1 mg/L (≈ 2.35 µM)	> 10 mg/L	2.5 mg/L (≈ 5.86 µM)	≤ 0.15 mg/L	0.23 mg/L (≈ 0.539 µM)	> 10 mg/L	5 mg/L (≈ 11.7 µM)	> 10 mg/L	–	41.26	none of the compounds showed an inhibitory effect	41.3 mg/L (≈ 96.8 µM)	high stability
CC(C)OC(=O)c1ccc2c(c1)[n+]([O-])c(C(=O)C(C)C)c(C(F)(F)F)[n+]2[O-] [Compound T-085]	1 mg/L (≈ 2.59 µM)	2.5 mg/L (≈ 6.47 µM)	5 mg/L (≈ 12.9 µM)	≤ 0.15 mg/L	0.13 mg/L (≈ 0.337 µM)	2.5 mg/L (≈ 6.47 µM)	0.62 mg/L (≈ 1.6 µM)	1.25 mg/L (≈ 3.24 µM)	–	45.42	–	45.4 mg/L (≈ 118 µM)	–
CCCOC(=O)c1ccc2c(c1)[n+]([O-])c(C(=O)OC)c(C)[n+]2[O-] [Compound T-088]	0.5 mg/L (≈ 1.56 µM)	> 10 mg/L	> 10 mg/L	≤ 0.15 mg/L	0.27 mg/L (≈ 0.843 µM)	> 10 mg/L	> 10 mg/L	2.5 mg/L (≈ 7.81 µM)	36.5 mg/L (≈ 114 µM)	73.02	–	–	–
CCCOC(=O)c1ccc2c(c1)[n+]([O-])c(C(=O)c1cccs1)c(C(F)(F)F)[n+]2[O-] [Compound T-089]	0.5 mg/L (≈ 1.17 µM)	> 10 mg/L	> 10 mg/L	0.12 mg/L (≈ 0.281 µM)	0.15 mg/L (≈ 0.352 µM)	> 10 mg/L	0.62 mg/L (≈ 1.45 µM)	> 10 mg/L	–	48.54	–	24.3 mg/L (≈ 56.9 µM)	–
